Test results from patent USRE37781E1, “Substituted cyclic carbonyls and derivatives thereof useful as retroviral protease inhibitors” (DuPont Pharmaceuticals Company, priority 1991, dated 2002).
In brackets after ≈: the same amount, converted by molar mass. Like-named read-outs stand apart in the source and are kept apart here.

Columns and labels:
[1] = target: single-chain tethered dimer of HIV protease (Human immunodeficiency virus 1, UniProt P04585); assay: biochemical; type: biochemical; set-up: fused on or other part: A second copy of the same protease unit is joined to the first by a short peptide tether, giving one polypeptide
[2] = system: HIV-1 (RF) in MT-2 cells; assay: microbe, parasite or virus in culture; type: cell-based
Summary of the method: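 Read-out: gag and pol viral RNA captured by 5′-biotinylated oligonucleotides on streptavidin-coated wells, detected with alkaline phosphatase-linked reporter oligonucleotides, calibrated against BH10 in vitro transcripts. Virus stocks (RF, MN, IIIB) come from H9 cultures; MT-2 host cells kept in RPMI 1640, 5% FCS.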

[3] = read-out: HPLC K1, Table 2d, HIV protease inhibition, HPLC method
[4] = Human immunodeficiency virus 1, MT2, 48 h, Table 2d, HIV RNA assay, read-out: IC90
[5] = Table 2d, HIV protease inhibition, HPLC method, read-out: HPLC K1
[6] = read-out: HPLC K1, Table 2d, class symbols
[7] = Human immunodeficiency virus 1, MT2, 48 h, Table 2d, class symbols, read-out: IC90

In the case of `O=C1N(Cc2ccc(CO)cc2)C(Cc2ccccc2)C(O)C(O)C(Cc2ccccc2)N1Cc1cccnc1` (centres unmarked) [Example 15XE], the Ki [1, 3] is reported as < 10 nM and the IC90 [2, 4] is reported as < 10 µg/mL.
In the case of `N#CCc1cccc(CN2C(=O)N(Cc3cccc(CC#N)c3)C(Cc3ccccc3)C(O)C(O)C2Cc2ccccc2)c1` (centres unmarked) [15DU], the Ki [1, 3] is reported as 10 to 1000 nM and the IC90 [2, 4] is reported as < 10 µg/mL.
`NC(=NO)c1cccc(CN2C(=S)N(Cc3ccc(CO)cc3)C(Cc3ccccc3)C(O)C(O)C2Cc2ccccc2)c1` (centres unmarked) [Example 27I] was tested, and the Ki ([1]; Table 2q, read-out: HPLC Ki) was < 10 nM and the IC90 ([2]; Table 2q) was “+++ (+++=<10 μg/mL)”.
For `O=C1N(Cc2cccc(CO)c2)C(Cc2ccc(F)c(F)c2)C(O)C(O)C(Cc2ccc(F)c(F)c2)N1Cc1cccc(CO)c1` (centres unmarked) [20AA], the Ki ([1]; Table 2i, read-out: HPLC Ki) was < 10 nM and the IC90 ([2]; Table 2i) was “+++ (+++=<10 μg/mL)”.
For `CNC(=O)OCCCCCN1C(=O)N(CCCCCOC(=O)NC)C(Cc2ccccc2)C(O)C(O)C1Cc1ccccc1` (centres unmarked) [15EK], the Ki [1, 5] was 10 to 1000 nM and the IC90 ([2]; Table 2d, HIV RNA assay) was “++ (++=10 to 100 μg/mL)”.
`CC(=O)CCCCN1C(=O)N(CCCCC(C)=O)C(Cc2ccccc2)C(O)C(O)C1Cc1ccccc1` (centres unmarked) [Example 15WB] showed a Ki [1, 6] of 10 to 1000 nM and an IC90 [2, 7] of 10 to 100 µg/mL (≈ 19.1 to 191 µM).
With `O=C1N(Cc2ccc(CO)o2)C(Cc2ccccc2)C(O)C(O)C(Cc2ccccc2)N1Cc1ccc(CO)o1` (centres unmarked) [Example 13X] the Ki [1, 6] was 10 to 1000 nM and the IC90 [2, 7] was > 100 µg/mL.
In the case of `N#Cc1cccc(CN2C(Cc3ccccc3)C(O)C(O)C(Cc3ccccc3)N(Cc3cccc(C#N)c3)S2(=O)=O)c1` (centres unmarked) [23Y], the Ki ([1]; Table 2m, read-out: HPLC Ki) is reported as 10 to 1000 nM and the IC90 ([2]; Table 2m) is reported as “+++ (+++=<10 μg/mL)”.
For `O=C1N(Cc2ccc3oc(=O)[nH]c3c2)C(Cc2ccccc2)C(O)C(O)C(Cc2ccccc2)N1Cc1ccc2oc(=O)[nH]c2c1` (centres unmarked) [15DC], the Ki [1, 5] was < 10 nM and the IC90 ([2]; Table 2d, HIV RNA assay) was “+++ (+++=<10 μg/mL)”.
In the case of `Cc1ccc(S(=O)(=O)NN=Cc2cccc(CN3C(=O)N(Cc4cccc(C=NNS(=O)(=O)c5ccc(C)cc5)c4)C(Cc4ccccc4)C(O)C(O)C3Cc3ccccc3)c2)cc1` (centres unmarked) [Example 15YF], the Ki [1, 3] is reported as 10 to 1000 nM and the IC90 [2, 4] is reported as < 10 µg/mL.
In the case of `NC(=NO)c1cccc(CN2C(=O)N(Cc3cccc(-c4cc[nH]n4)c3)C(Cc3ccccc3)C(O)C(O)C2Cc2ccccc2)c1` (centres unmarked) [Example 15BW], the Ki [1, 3] is reported as < 10 nM and the IC90 [2, 4] is reported as < 10 µg/mL.
In the case of `O=C1NC(Cc2ccccc2)C(O)C(O)C(Cc2ccccc2)N1CC1CC1CO` (centres unmarked) [Example 12N], the Ki [1, 6] is reported as 10 to 1000 nM and the IC90 [2, 7] is reported as > 100 µg/mL.
`O=C1N(Cc2cccc(C=NCCO)c2)C(Cc2ccccc2)C(O)C(O)C(Cc2ccccc2)N1Cc1cccc(C2NCCO2)c1` (centres unmarked) [Example 9K] was tested, and the Ki ([1]; Table 2d, class symbols, read-out: HPLC K1) was 10 to 1000 nM and the IC90 ([2]; Table 2d, class symbols) was “+++ (+++=<10 μg/mL)”.
`Cl.Cl.O=C(NCCCCCN1C(=O)N(CCCCCNC(=O)OCc2cccnc2)C(Cc2ccccc2)C(O)C(O)C1Cc1ccccc1)OCc1cccnc1` (centres unmarked) [15EU] was tested, and the Ki [1, 5] was < 10 nM and the IC90 ([2]; Table 2d, HIV RNA assay) was “+++ (+++=<10 μg/mL)”.
For `O=C1N(Cc2cccc(-c3cc[nH]n3)c2)C(Cc2ccccc2)C(O)C(O)C(Cc2ccccc2)N1Cc1cccc([N+](=O)[O-])c1` (centres unmarked) [Example 15CD], the Ki [1, 3] was < 10 nM and the IC90 [2, 4] was < 10 µg/mL.
`CN(C)CCNC(=O)c1cccc(CN2C(Cc3ccccc3)C(O)C(O)C(Cc3ccccc3)N(Cc3cccc(C(=O)NCCN(C)C)c3)S2(=O)=O)c1` (centres unmarked) [23AA] was tested, and the Ki ([1]; Table 2m, read-out: HPLC Ki) was 10 to 1000 nM and the IC90 ([2]; Table 2m) was “++ (++=10 to 100 μg/mL)”.
In the case of `O=C1N(CCCCCO)C(Cc2ccccc2)C(O)C(O)C(Cc2ccccc2)N1CCCCCO` (centres unmarked) [Example 13H], the Ki [1, 6] is reported as < 10 nM and the IC90 [2, 7] is reported as < 10 µg/mL.
For `O=C1N(Cc2ccc(CO)cc2)C(Cc2ccc(F)c(F)c2)C(O)C(O)C(Cc2ccc(F)c(F)c2)N1Cc1ccc(CO)cc1` (centres unmarked) [20AB], the Ki ([1]; Table 2i, read-out: HPLC Ki) was < 10 nM and the IC90 ([2]; Table 2i) was “+++ (+++=<10 μg/mL)”.
In the case of `COCCCCCN1C(=O)N(CCCCCOC)C(Cc2ccccc2)C(O)C(O)C1Cc1ccccc1` (centres unmarked) [Example 15VV], the Ki [1, 6] is reported as 10 to 1000 nM and the IC90 [2, 7] is reported as 10 to 100 µg/mL (≈ 19 to 190 µM).
`O=C1N(Cc2cccc(C#CCO)c2)C(Cc2ccccc2)C(O)C(O)C(Cc2ccccc2)N1Cc1cccc(C#CCO)c1` (centres unmarked) [Example 15XL] was tested, and the Ki [1, 3] was < 10 nM and the IC90 [2, 4] was < 10 µg/mL.
`CN(C)CCNC(=O)c1cccc(CN2C(=O)N(CC3CC3)C(Cc3ccccc3)C(O)C(O)C2Cc2ccccc2)c1` (centres unmarked) [15YA] was tested, and the Ki [1, 5] was < 10 nM and the IC90 ([2]; Table 2d, HIV RNA assay) was “+++ (+++=<10 μg/mL)”.
`NC(=NO)c1cccc(CN2C(=S)N(Cc3cccc(C(N)=NO)c3)[C@H](Cc3ccccc3)[C@H](O)[C@@H](O)[C@H]2Cc2ccccc2)c1` [Example 27L] was tested, and the Ki ([1]; Table 2q, read-out: HPLC Ki) was < 10 nM and the IC90 ([2]; Table 2q) was “+++ (+++=<10 μg/mL)”.
With `O=C1N(Cc2ccc(F)c(CO)c2)C(Cc2ccccc2)C(O)C(O)C(Cc2ccccc2)N1Cc1ccc(F)c(CO)c1` (centres unmarked) [15EG] the Ki [1, 5] was < 10 nM and the IC90 ([2]; Table 2d, HIV RNA assay) was “+++ (+++=<10 μg/mL)”.
In the case of `CC(CCCCN1C(=O)N(CCCCC(C)=NO)C(Cc2ccccc2)C(O)C(O)C1Cc1ccccc1)=NO` (centres unmarked) [Example 15WC], the Ki [1, 6] is reported as 10 to 1000 nM and the IC90 [2, 7] is reported as < 10 µg/mL.
With `O=C1N(CCCCCO)C(Cc2ccccc2)C(O)C(O)C(Cc2ccccc2)N1Cc1cccc(CO)c1` (centres unmarked) [Example 15WE] the Ki [1, 6] was < 10 nM and the IC90 [2, 7] was < 10 µg/mL.
